Values quoted from earlier work as cited in US10881492B2, “Oral care compositions and regimens” (The Procter & Gamble Company, priority 2014, dated 2021).

Settings: concentration level where the cooling effect can be clearly recognized
For `CC(C)[C@@H]1CC[C@@H](C)C[C@@H]1O` [Example 1-neomenthol, 1-neomenthol], the cooling threshold is listed as “about 3,000 ppb”. In the case of `CC(C)[C@@H]1CC[C@@H](C)C[C@H]1O` [L-menthol], the cooling threshold is listed as “about 800 ppb”. In the case of `CC(C)[C@@H]1CC[C@@H](C)C[C@@H]1O` [d-neomenthol], the cooling threshold is given as “about 25,000 ppb”.
